A short description of data set [1]: In vivo pharmacokinetics in rats. The following applies: Wistar, rat, plasma, po, male rats, 2 mg/kg p.o.; for bioavailability: AUCnorm intragastral / AUCnorm i.v. (0.5 mg/kg), read-out: F (oral bioavailability). The protocol: 2.4 In Vivo Pharmacokinetics in Rats
For in vivo pharmacokinetic experiments test compounds were administered to male Wistar rats intravenously at a dose of 0.5 mg/kg and intragastral at a dose of 2 mg/kg formulated as solutions using solubilizers such as PEG400 or Solutol in well-tolerated amounts.
For pharmacokinetics after intravenous administration test compounds were given as i.v. bolus and blood samples were taken at 2 min, 8 min, 15 min, 30 min, 45 min, 1 h, 2 h, 4 h, 7 h and 24 h after dosing. […] For pharmacokinetics after intragastral administration test compounds were given intragastral to fasted rats and blood samples were taken at 8 min, 15 min, 30 min, 45 min, 1 h, 2 h, 4 h, 7 h and 24 h after dosing. […] Blood was collected into Lithium-Heparintubes (Monovetten®, Sarstedt) and centrifuged for 15 min at 3000 rpm. An aliquot of 100 μL from the supernatant (plasma) was taken and precipitated by addition of 400 μL cold acetonitril and frozen at −20° C. over night. Samples were subsequently thawed and centrifuged at 3000 rpm, 4° C. for 20 minutes. Aliquots of the supernatants were taken for analytical testing using an Agilent 1200 HPLC-system with LCMS/MS detection. PK parameters were calculated by non-compartmental analysis using a PK calculation software.
PK parameters derived from concentration-time profiles after i.v.: CLplasma: Total plasma clearance of test compound (in L/kg/h); CLblood: Total blood clearance of test compound: CLplasma*Cp/Cb (in L/kg/h) with Cp/Cb being the ratio of concentrations in plasma and blood. PK parameters calculated from concentration time profiles after i.g.: Cmax: Maximal plasma concentration (in mg/L); Cmaxnorm: Cmax divided by the administered dose (in kg/L); Tmax: Time point at which Cmax was observed (in h). Parameters calculated from both, i.v. and i.g. concentration-time profiles: AUCnorm: Area under the concentration-time curve from t=0 h to infinity (extrapolated) divided by the administered dose (in kg*h/L); AUC(0−tlast)norm: Area under the concentration-time curve from t=0 h to the last time point for which plasma concentrations could be measured divided by the administered dose (in kg*h/L); t½: terminal half-life (in h); F: oral bioavailability: AUCnorm after intragastral administration divided by AUCnorm after intravenous administration (in %).

Data set [2] addresses T1, human GnRHR (Homo sapiens, UniProt P30968).
T1 construct: own knowledge: Tag-lite cells usually carry an N-terminal SNAP-tag fusion; host or cells: Hek293 cells, transiently transfected, supplied frozen
T1 sequence (P30968 1-328): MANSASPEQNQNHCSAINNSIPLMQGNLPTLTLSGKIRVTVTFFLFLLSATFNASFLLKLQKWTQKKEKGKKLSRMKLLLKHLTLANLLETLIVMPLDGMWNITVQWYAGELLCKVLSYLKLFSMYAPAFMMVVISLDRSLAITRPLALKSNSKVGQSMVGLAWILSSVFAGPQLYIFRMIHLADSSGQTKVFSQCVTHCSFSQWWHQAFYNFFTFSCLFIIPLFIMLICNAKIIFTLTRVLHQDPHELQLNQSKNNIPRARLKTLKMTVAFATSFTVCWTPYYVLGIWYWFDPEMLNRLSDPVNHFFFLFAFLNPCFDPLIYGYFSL
Nature of the data set: Tag-Lite receptor binding assay. The following applies: Hek293 cells transiently transfected with human GnRHR; displacement of green-labelled GnRHR binding peptide; read-out: Potency in receptor binding assay using TAG-LITE technology, given as IC50. From the text: 2.2. Tag-Lite® Receptor Binding Assay
This binding assay is based on the fluorescence resonance energy transfer between fluorescence donor labelled human GnRHR and a green-labelled GnRHR binding peptide. Compounds interfering with the ligand binding side of the human GnRHR will replace the labelled peptide resulting in a signal decrease. The assay principle was established by Cisbio Bioassays (Bagnols-sur-Cèze Cedex, France) and further details are available on their homepage.
The assay procedure was further optimized for use in-house with reduced assay volumes. Frozen Hek293 cells, transiently transfected with human GnRHR and Terbium-labelling of the receptor, were supplied by Cisbio Bioassays as well as Tag-Lite buffer and green-labelled GnRHR binding peptide. Cells were thawed and transferred to cold Tag-Lite buffer. A volume of 8 μl of this cell suspension were added to 100 nl of a 160-fold concentrated solution of the test compound in DMSO pre-dispensed in a well of a white low-volume 384-well microtiter plate (Greiner Bio-One, Frickenhausen, Germany). The mixture was incubated for 5 min at room temperature. In the next step either 4 μl Tag-Lite buffer or as control 4 μl of an exceeding amount unlabelled binding peptide in Tag-Lite buffer were transferred to the mixture. The green-labelled GnRHR binding peptide was added in a final step at EC50 in a volume of 4 μl Tag-Lite buffer. After an incubation of 1 h at room temperature plates were measured in a microplate reader, e.g. a PHERAstar (BMG Labtechnologies, Offenburg, Germany) by using a specific optic module.
A ratio from the fluorescence emissions at 520 nm (green fluorescence) and at 490 nm (background signal of Terbium-labelled GnRHR) was calculated and the data were normalized (reaction without test compound=0% inhibition of binding of green-labelled peptide; reaction without test compound with exceeding amount unlabelled binding peptide=100% inhibition of binding of green-labelled peptide). On the same microtiter plate, compounds were tested at 10 different concentrations in the range of 12.5 μM to 0.64 nM (12.5 μM, 4.2 μM, 1.4 μM, 0.46 μM, 0.15 μM, 51 nM, 17 nM, 5.7 nM, 1.9 nM and 0.64 nM; dilution series prepared before the assay at the level of the 160-fold conc. stock solutions by serial 1:3 dilutions in 100% DMSO) in duplicate values for each concentration. By using an in-house software, the IC50 values were calculated by a 4 parameter fit.

Each structure is given as a SMILES string.

A word on the half-life: it is the time in which the quantity being followed falls by half. What is called bioavailability is the share of a dose that reaches the circulation, judged against a reference dose that is usually intravenous. One may read the IC50 as the midpoint of a concentration-inhibition curve. As for `O=C(NCc1ncc(C(F)(F)F)cc1F)c1ccc2c(c1)C1(CCS(=O)(=O)CC1)[C@H](C1CC1)N2S(=O)(=O)c1ccc(F)cc1` (single isomer, unassigned) [Example 1.1], in data set [1], the half-life was 5.2 h and the bioavailability turned out to be 32%. In data set [2], the IC50 turned out to be 230 nM.
With `N#Cc1cccc(S(=O)(=O)N2c3ccc(C(=O)NCc4ncc(C(F)(F)F)cc4Cl)cc3C3(CCS(=O)(=O)CC3)[C@@H]2C2CC2)c1` (single isomer, unassigned) [Example 10.1], in data set [1], the half-life is 3.3 h and the bioavailability stood at 23%. Further, in data set [2], the IC50 amounted to 10.3 nM.
On to `O=C(NCc1ncc(C(F)(F)F)cc1Cl)c1ccc2c(c1)C1(CCS(=O)(=O)CC1)[C@H](C1CC1)N2S(=O)(=O)c1ccc(F)cc1` [Example 3.1, (2S)—N-{[3-chloro-5-(trifluoromethyl)pyridin-2-yl]methyl}-2-cyclopropyl-1-[(4-fluorophenyl)sulfonyl]-1,2,2′,3′,5′,6′-hexahydrospiro[indole-3,4′-thiopyran]-5-carboxamide 1′,1′-dioxide], for which, in data set [1], the half-life was 17 h and the bioavailability was found to be 87%. Moreover, the 50% inhibitory concentration (IC50) in data set [2] is 16.7 nM.

For the origin of these results see patent publication US20160052936A1, “SPIROINDOLINE DERIVATIVES FOR USE AS GONADOTROPIN-RELEASING HORMONE RECEPTOR ANTAGONISTS” (BAYER PHARMA AKTIENGESELLSCHAFT, priority 2013, published 2016).
